Data from patent US11230535B2, “CFTR regulators and methods of use thereof” (THE REGENTS OF THE UNIVERSITY OF CALIFORNIA, priority 2015, dated 2022).

molecular target: human wild-type CFTR (Homo sapiens, UniProt P13569); assay: Cell-based plate reader (YFP iodide influx) assay of CFTR function; set-up: expressed in transfected cells; host or cells: Fischer rat thyroid (FRT) cells stably co-expressing YFP-H148Q; conditions: N,N-diethyl-N′-aryl-1,3,5-triazine diamine analogs; read-out: EC50 for CFTR activation
Sequence (P13569 whole entry): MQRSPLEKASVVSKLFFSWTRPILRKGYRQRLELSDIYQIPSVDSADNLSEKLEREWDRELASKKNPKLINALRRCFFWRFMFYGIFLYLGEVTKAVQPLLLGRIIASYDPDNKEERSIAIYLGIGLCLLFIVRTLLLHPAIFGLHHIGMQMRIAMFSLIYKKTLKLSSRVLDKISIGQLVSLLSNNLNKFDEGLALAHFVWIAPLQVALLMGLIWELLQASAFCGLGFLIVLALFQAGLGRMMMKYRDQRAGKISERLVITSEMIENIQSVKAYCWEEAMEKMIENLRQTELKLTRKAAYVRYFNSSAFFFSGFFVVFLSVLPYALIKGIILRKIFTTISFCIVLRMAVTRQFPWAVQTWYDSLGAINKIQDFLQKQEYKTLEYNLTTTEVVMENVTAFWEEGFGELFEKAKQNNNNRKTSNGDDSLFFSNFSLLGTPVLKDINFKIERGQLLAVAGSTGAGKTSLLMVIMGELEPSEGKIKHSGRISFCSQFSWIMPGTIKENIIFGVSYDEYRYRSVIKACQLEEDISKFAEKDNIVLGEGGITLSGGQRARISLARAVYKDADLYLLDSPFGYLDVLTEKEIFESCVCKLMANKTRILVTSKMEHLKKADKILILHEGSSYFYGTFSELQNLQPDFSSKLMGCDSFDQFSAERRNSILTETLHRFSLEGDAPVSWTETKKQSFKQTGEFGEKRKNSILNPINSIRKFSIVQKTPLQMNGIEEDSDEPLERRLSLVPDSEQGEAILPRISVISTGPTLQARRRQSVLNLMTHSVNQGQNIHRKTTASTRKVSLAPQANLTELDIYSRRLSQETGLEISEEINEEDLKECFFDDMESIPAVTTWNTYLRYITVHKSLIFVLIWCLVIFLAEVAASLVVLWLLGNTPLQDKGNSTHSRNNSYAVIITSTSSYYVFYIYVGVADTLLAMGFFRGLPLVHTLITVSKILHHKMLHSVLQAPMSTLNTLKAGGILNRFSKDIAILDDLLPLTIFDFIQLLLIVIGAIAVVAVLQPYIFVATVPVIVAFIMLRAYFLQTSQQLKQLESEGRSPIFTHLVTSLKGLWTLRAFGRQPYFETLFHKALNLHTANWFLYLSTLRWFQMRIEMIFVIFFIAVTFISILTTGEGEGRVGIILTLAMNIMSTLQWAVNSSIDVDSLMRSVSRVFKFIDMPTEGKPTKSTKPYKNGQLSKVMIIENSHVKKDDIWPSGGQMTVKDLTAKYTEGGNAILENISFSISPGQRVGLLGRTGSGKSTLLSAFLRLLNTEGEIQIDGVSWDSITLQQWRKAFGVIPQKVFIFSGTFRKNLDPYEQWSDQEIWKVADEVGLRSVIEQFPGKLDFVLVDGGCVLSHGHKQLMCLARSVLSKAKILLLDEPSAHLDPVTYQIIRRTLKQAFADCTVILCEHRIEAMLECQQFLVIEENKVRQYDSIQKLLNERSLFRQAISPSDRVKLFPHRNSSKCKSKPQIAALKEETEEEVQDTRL
Protocol: The initiate rate of I^− influx was computed by determined using exponential regression. All compound plates contained negative controls (DMSO vehicle) and positive controls (20 μM forskolin).
High-throughput screening. […] The initiate rate of I^− influx was computed by determined using exponential regression. All compound plates contained negative controls (DMSO vehicle) and positive controls ([…] forskolin).
Platereader assays of chloride channel function. CFTR activity was assayed as described. […] I^− influx was measured in a plate reader with initial baseline read for 2 s and then for 12 s after rapid addition of an I^−-containing solution. TMEM16A activity was assayed similarly as described using FRT cells co-expressing YFP and TMEM16A. Activity of non-TMEM16A CaCC was assayed as described in HT-29 cells expressing YFP. In each assay initial rates of I^− influx were computed as a linear measure of channel function.

Row | SMILES | EC50 [nM]
1 | CCN(CC)c1nc(Nc2cccc(F)c2)nc(OCC(F)(F)C(F)F)n1 [7c, N,N-Diethyl-N′-(3-fluorophenyl)-6-(2,2,3,3-tetrafluoropropoxy)-1,3,5-triazine-2,4-diamine] | 1600
2 | CCN(CC)c1nc(Nc2ccc(F)cc2)nc(OCC(F)(F)C(F)F)n1 [7g, N,N-Diethyl-N′-(4-fluorophenyl)-6-(2,2,3,3-tetrafluoropropoxy)-1,3,5-triazine-2,4-diamine] | 4800
3 | CCN(CC)c1nc(Nc2cccc(C(=O)O)c2)nc(OCC(F)(F)C(F)F)n1 [7b, 3-{[4-(Diethylamino)-6-(2,2,3,3-tetrafluoropropoxy)-1,3,5-triazin-2-yl]amino}benzoic acid] | 500
4 | CCN(CC)c1nc(Nc2cccc(F)c2)nc(OC(C(F)(F)F)C(F)(F)F)n1 [6b, N,N-Diethyl-N′-(3-fluorophenyl)-6-[(1,1,1,3,3,3-hexafluoropropan-2-yl)oxy]-1,3,5-triazine-2,4-diamine] | 140
5 | CCN(CC)c1nc(Nc2ccc(F)cc2)nc(OC(C(F)(F)F)C(F)(F)F)n1 [6f, N,N-Diethyl-N′-(4-fluorophenyl)-6-[(1,1,1,3,3,3-hexafluoropropan-2-yl)oxy]-1,3,5-triazine-2,4-diamine] | 700
6 | CCN(CC)c1nc(Nc2ccccc2)nc(OCC(F)(F)C(F)F)n1 [7a, N,N-Diethyl-N′-phenyl-6-(2,2,3,3-tetrafluoropropoxy)-1,3,5-triazine-2,4-diamine] | 2000
7 | CCN(CC)c1nc(Nc2cccc([N+](=O)[O-])c2)nc(OCC(F)(F)C(F)F)n1 [7e, N,N-Diethyl-N′-(3-nitrophenyl)-6-(2,2,3,3-tetrafluoropropoxy)-1,3,5-triazine-2,4-diamine] | 1200
8 | CCN(CC)c1nc(Nc2cccc(Cl)c2)nc(OCC(F)(F)C(F)F)n1 [7d, N′-(3-Chlorophenyl)-N,N-diethyl-6-(2,2,3,3-tetrafluoropropoxy)-1,3,5-triazine-2,4-diamine] | 5400

same assay, conditions: N-methyl-N′-phenyl-1,3,5-triazine diamine analogs; read-out: EC50

Row | SMILES | EC50 [nM]
9 | CNc1nc(Nc2ccccc2)nc(OC(C(F)(F)F)C(F)(F)F)n1 [compound 11] | 120

same assay, conditions: bicyclic aniline analogs; read-out: EC50

Row | EC50 [nM] | SMILES
10 | 2800 | CCN(CC)c1nc(Nc2ccc3cn[nH]c3c2)nc(OC(C(F)(F)F)C(F)(F)F)n1 [6i, N,N-Diethyl-6-[(1,1,1,3,3,3-hexafluoropropan-2-yl)oxy]-N-(1H-indazol-6-yl)-1,3,5-triazine-2,4-diamine]

same assay, conditions: commercial analogs; FRT cells with YFP and wildtype CFTR, 125 nM forskolin

Row | % Activation [%] | SMILES
11 | 24 | C=CCNc1nc(Nc2ccc(I)cc2C)nc(OCC)n1 [K053]
12 | 45 | CCOc1nc(Nc2ccc([N+](=O)[O-])cc2)nc(NC2CCCCC2)n1 [K051]
13 | 20 | CCC(C)Nc1nc(Nc2ccc(OC(F)(F)F)cc2)nc(OCC(F)(F)F)n1 (stereo not shown) [K086]
14 | 23 | COc1nc(Nc2ccc(OC)c(Cl)c2)nc(OC)n1 [K028]
15 | 38 | CCC(C)Nc1nc(Nc2ccc([N+](=O)[O-])cc2)nc(OC(C(F)(F)F)C(F)(F)F)n1 (stereo not shown) [K056]
16 | 31 | Cc1ccc(Nc2nc(OC(C(F)(F)F)C(F)(F)F)nc(N3CCCCC3)n2)cc1 [K061]
17 | 25 | CN1CCN(c2nc(Nc3ccc(OC(F)(F)F)cc3)nc(OCC(F)(F)F)n2)CC1 [K074]
18 | 53 | CCOc1nc(Nc2ccc(Cl)cc2)nc(NC2CCCCC2)n1 [K038]
19 | 19 | CC(=O)c1ccc(Nc2nc(OC(C(F)(F)F)C(F)(F)F)nc(OC(C(F)(F)F)C(F)(F)F)n2)cc1 [K016]
20 | 46 | C=CCNc1nc(Nc2ccc([N+](=O)[O-])cc2)nc(OC)n1 [K048]
21 | 6 | O=[N+]([O-])c1ccc(Nc2nc(OC(C(F)(F)F)C(F)(F)F)nc(OC(C(F)(F)F)C(F)(F)F)n2)cc1 [K015]
22 | 20 | CC(C)Nc1nc(Nc2ccc([N+](=O)[O-])cc2)nc(OC(C(F)(F)F)C(F)(F)F)n1 [K027]
23 | 37 | C=CCNc1nc(OC(C(F)(F)F)C(F)(F)F)nc(N(c2ccccc2)c2ccccc2)n1 [K058]
24 | 14 | CCOc1nc(Nc2ccc(I)cc2C)nc(NC2CCCCC2)n1 [K054]
25 | 73 | C=CCNc1nc(Nc2ccc(Cl)cc2)nc(OC)n1 [K034]
26 | 16 | CC(C)(C)Nc1nc(Nc2ccc(OC(F)(F)F)cc2)nc(OCC(F)(F)F)n1 [K003]
27 | 55 | COc1nc(Nc2ccc(Cl)cc2)nc(NC2CCCCC2)n1 [K035]
28 | 53 | COc1nc(Nc2ccc(Cl)cc2)nc(NC(C)(C)C)n1 [K022]
29 | 37 | FC(F)(F)COc1nc(Nc2ccc(OC(F)(F)Cl)cc2)nc(N2CCOCC2)n1 [K069]
30 | 49 | C=CCNc1nc(Nc2ccc(-c3nc4ccccc4o3)cc2)nc(OCC)n1 [K067]

Row | % Activation [%] | SMILES
31 | 26 | FC(F)(F)COc1nc(NCc2ccccc2)nc(Nc2ccc(OC(F)(F)Cl)cc2)n1 [K080]
32 | 21 | FC(F)(F)C(Oc1nc(Nc2ccccc2)nc(OC(C(F)(F)F)C(F)(F)F)n1)C(F)(F)F [K010]
33 | 24 | FC(F)(F)COc1nc(Nc2ccc(OC(F)(F)Cl)cc2)nc(N2CCN(c3cccc(Cl)c3)CC2)n1 [K081]
34 | 60 | FC(F)(F)COc1nc(Nc2ccccc2)nc(OCC(F)(F)F)n1 [K018]
35 | 43 | Cc1cc(I)ccc1Nc1nc(NCCN2CCOCC2)nc(OCC(F)(F)F)n1 [K091]
36 | 16 | FC(F)(F)C(Oc1nc(Nc2cccnc2)nc(OC(C(F)(F)F)C(F)(F)F)n1)C(F)(F)F [K017]
37 | 57 | CCOc1nc(Nc2ccccc2)nc(NC2CCCC2)n1 [K009]
38 | 90 | C=CCNc1nc(Nc2cccc([N+](=O)[O-])c2)nc(OC(C(F)(F)F)C(F)(F)F)n1 [K059]
39 | 37 | CNc1nc(OCC(F)(F)F)nc(N(c2ccccc2)c2ccccc2)n1 [K020]
40 | 22 | COc1nc(NCCO)nc(Nc2ccc(Cl)cc2)n1 [K033]
41 | 41 | FC(F)(F)C(Oc1nc(N2CCCCCC2)nc(N(c2ccccc2)c2ccccc2)n1)C(F)(F)F [K063]
42 | 17 | COc1nc(NCCO)nc(Nc2ccc(I)cc2)n1 [K040]
43 | 19 | CCOc1nc(NCCO)nc(Nc2ccc(I)cc2)n1 [K043]
44 | 33 | CCCCCCNc1nc(Nc2ccc([N+](=O)[O-])cc2)nc(OCC)n1 [K088]
45 | 15 | CCOc1nc(NCCN2CCOCC2)nc(Nc2ccc(I)cc2)n1 [K045]
46 | 52 | CCOc1nc(NCCN2CCOCC2)nc(Nc2ccc([N+](=O)[O-])cc2)n1 [K090]
47 | 35 | C=CCNc1nc(Nc2ccc(I)cc2)nc(OC)n1 [K041]
48 | 9 | CC(C)(C)Nc1nc(Nc2ccc(OC(F)(F)Cl)cc2)nc(OCC(F)(F)F)n1 [K029]
49 | 84 | CCOc1nc(NCCO)nc(Nc2ccc(-c3nc4ccccc4o3)cc2)n1 [K068]
50 | 66 | C=CCNc1nc(Nc2ccc([N+](=O)[O-])cc2)nc(OCC)n1 [K050]

Row | % Activation [%] | SMILES
51 | 46 | C=CCNc1nc(Nc2ccc(OC(F)(F)Cl)cc2)nc(OCC(F)(F)F)n1 [K076]
52 | 31 | FC(F)(F)COc1nc(Nc2ccc(OC(F)(F)F)cc2)nc(N2CCOCC2)n1 [K072]
53 | 19 | FC(F)(F)COc1nc(Nc2ccc(OC(F)(F)F)cc2)nc(N2CCCCC2)n1 [K073]
54 | 29 | O=[N+]([O-])c1ccccc1Nc1nc(OCC(F)(F)F)nc(OCC(F)(F)F)n1 [K005]
55 | 22 | CCC(C)Nc1nc(Nc2ccc(OC(F)(F)Cl)cc2)nc(OCC(F)(F)F)n1 (stereo not shown) [K084]
56 | 20 | Cc1ccc(Nc2nc(OC(C(F)(F)F)C(F)(F)F)nc(OC(C(F)(F)F)C(F)(F)F)n2)cc1 [K011]
57 | 15 | O=[N+]([O-])c1ccccc1Nc1nc(OC(C(F)(F)F)C(F)(F)F)nc(OC(C(F)(F)F)C(F)(F)F)n1 [K013]
58 | 87 | CCOc1nc(Nc2ccc(-c3nc4ccccc4o3)cc2)nc(N2CCOCC2)n1 [K066]
59 | 28 | FC(F)(F)COc1nc(N2CCCCC2)nc(N(c2ccccc2)c2ccccc2)n1 [K057]
60 | 18 | O=[N+]([O-])c1cccc(Nc2nc(OC(C(F)(F)F)C(F)(F)F)nc(OC(C(F)(F)F)C(F)(F)F)n2)c1 [K014]
61 | 38 | COc1ccc(Nc2nc(NC3CCCCC3)nc(OC(C(F)(F)F)C(F)(F)F)n2)cc1 [K060]
62 | 54 | FC(F)(F)COc1nc(Nc2ccc(OC(F)(F)Cl)cc2)nc(NC2CC2)n1 [K083]
63 | 42 | CN(C)c1nc(OC(C(F)(F)F)C(F)(F)F)nc(N(c2ccccc2)c2ccccc2)n1 [K055]
64 | 21 | CNc1nc(Nc2ccccc2C(F)(F)F)nc(OC(C(F)(F)F)C(F)(F)F)n1 [K007]
65 | 40 | FC(F)(F)COc1nc(Nc2ccc(OC(F)(F)F)cc2)nc(NC2CC2)n1 [K079]
66 | 25 | CN1CCN(c2nc(Nc3ccc(OC(F)(F)Cl)cc3)nc(OCC(F)(F)F)n2)CC1 [K071]
67 | 16 | FC(F)(F)COc1nc(Nc2ccc(OC(F)(F)Cl)cc2)nc(OCC(F)(F)F)n1 [K026]
68 | 63 | C=CCNc1nc(Nc2ccc(F)cc2)nc(OC(C(F)(F)F)C(F)(F)F)n1 [K002]
69 | 55 | C=CCNc1nc(Nc2ccc(I)cc2)nc(OCC)n1 [K044]
70 | 40 | CC(=O)N1CCN(c2nc(Nc3ccccc3C(=O)c3ccccc3)nc(OC(C(F)(F)F)C(F)(F)F)n2)CC1 [K064]

same assay, conditions: commercial analogs; read-out: EC50 (full-dose response assay, compounds >80% activation)

Row | EC50 [nM] | SMILES
71 | 750 | C=CCNc1nc(Nc2cccc([N+](=O)[O-])c2)nc(OC(C(F)(F)F)C(F)(F)F)n1 [K059]
72 | 4100 | CCOc1nc(NCCO)nc(Nc2ccc(-c3nc4ccccc4o3)cc2)n1 [K068]
73 | 2900 | CCOc1nc(Nc2ccc(-c3nc4ccccc4o3)cc2)nc(N2CCOCC2)n1 [K066]
